Assay results reported in patent US20160376605A1, “WHEAT PLANTS HAVING INCREASED TOLERANCE TO IMIDAZOLINONE HERBICIDES” (BASF SE, priority 2003, published 2016).

How the values were obtained:
Experiment in all cases: Field Trials (2): tolerance scores at two rates of imazamox
Type in all cases: in vivo
[1] = system: Durum wheat M3:4 lines derived from M2 plant UT16; conditions: UT16, range across M3:4 lines
From the text: (§1) One hundred ten M3:4 lines derived from sixteen M2 plants were screened at 71 g/ha and 160 g/ha imazamox. The number of M4 lines per M2 plant varied from one to twenty. Tolerance of M3:4 lines was compared to untreated plots of the same line as well as to treated plots of a wild-type cultivar from which some of them were derived.
(§2) All tested lines survived at both rates of herbicide treatment, whereas all plants of the wild type were killed at both rates. Based on comparison to the wild type line, all lines tested expressed considerable tolerance to the applied rates, particularly when looking at height reduction relative to untreated plots. A rate of 35 g/ha imazamox is adequate to kill susceptible durum wheat.

[2] = system: Durum wheat M3:4 lines derived from M2 plant UT10; conditions: UT10, range across M3:4 lines
From the text: as §1, §2

[3] = system: Wild Type durum wheat cultivar; conditions: for % Chlorosis / % Height Reduction: Wild Type
From the text: as §1, §2

[4] = system: Durum wheat M3:4 lines derived from M2 plant UT01; conditions: UT01, range across M3:4 lines
From the text: as §1, §2

[5] = system: Durum wheat M3:4 lines derived from M2 plant UT20; conditions: UT20, range across M3:4 lines
From the text: as §1, §2

[6] = system: Durum wheat M3:4 lines derived from M2 plant UT19; conditions: UT19, range across M3:4 lines
From the text: as §1, §2

[7] = system: Durum wheat M3:4 lines derived from M2 plant UT03; conditions: UT03, range across M3:4 lines
From the text: as §1, §2

[8] = system: Durum wheat M3:4 lines derived from M2 plant UT12; conditions: UT12, range across M3:4 lines
From the text: as §1, §2

[9] = system: Durum wheat M3:4 lines derived from M2 plant UT13; conditions: UT13, range across M3:4 lines
From the text: as §1, §2

[10] = system: Durum wheat M3:4 lines derived from M2 plant UT14; conditions: UT14, range across M3:4 lines
From the text: as §1, §2

[11] = system: Durum wheat M3:4 lines derived from M2 plant UT17; conditions: UT17, range across M3:4 lines
From the text: as §1, §2

[12] = system: Durum wheat M3:4 lines derived from M2 plant UT07; conditions: UT07, range across M3:4 lines
From the text: as §1, §2

[13] = system: Durum wheat M3:4 lines derived from M2 plant UT05; conditions: UT05, range across M3:4 lines
From the text: as §1, §2

COCc1cnc(C2=NC(C)(C(C)C)C(=O)N2)c(C(=O)O)c1 (stereo not drawn) [imazamox]
% Chlorosis ([1]; imazamox 71 g/ha, 14 DAT): 5-10%
% Height Reduction ([1]; imazamox 71 g/ha, 14 DAT): 0%
% Chlorosis ([1]; imazamox 71 g/ha, 30 DAT): 0%
% Height Reduction ([1]; imazamox 71 g/ha, 30 DAT): 0-10%
% Chlorosis ([1]; imazamox 160 g/ha, 14 DAT): 10-20%
% Height Reduction ([1]; imazamox 160 g/ha, 14 DAT): 0-10%
% Chlorosis ([1]; imazamox 160 g/ha, 30 DAT): 0-5%
% Height Reduction ([1]; imazamox 160 g/ha, 30 DAT): 0-10%
% Chlorosis ([2]; imazamox 71 g/ha, 14 DAT): 5-10%
% Height Reduction ([2]; imazamox 71 g/ha, 14 DAT): 0-10%
% Chlorosis ([2]; imazamox 71 g/ha, 30 DAT): 5%
% Height Reduction ([2]; imazamox 71 g/ha, 30 DAT): 0-5%
% Chlorosis ([2]; imazamox 160 g/ha, 14 DAT): 10%
% Height Reduction ([2]; imazamox 160 g/ha, 14 DAT): 0-20%
% Chlorosis ([2]; imazamox 160 g/ha, 30 DAT): 5%
% Height Reduction ([2]; imazamox 160 g/ha, 30 DAT): 0-10%
% Chlorosis ([3]; imazamox 71 g/ha, 14 DAT): 90%
% Height Reduction ([3]; imazamox 71 g/ha, 14 DAT): 100%
% Chlorosis ([3]; imazamox 71 g/ha, 30 DAT): 100%
% Height Reduction ([3]; imazamox 71 g/ha, 30 DAT): 100%
% Chlorosis ([3]; imazamox 160 g/ha, 14 DAT): 90%
% Height Reduction ([3]; imazamox 160 g/ha, 14 DAT): 100%
% Chlorosis ([3]; imazamox 160 g/ha, 30 DAT): 100%
% Height Reduction ([3]; imazamox 160 g/ha, 30 DAT): 100%
survival of wild type plants ([3]; imazamox 71 g/ha and 160 g/ha (both rates), all plants of the wild type): killed
% Chlorosis ([4]; imazamox 71 g/ha, 14 DAT): 0-10%
% Height Reduction ([4]; imazamox 71 g/ha, 14 DAT): 0%
% Chlorosis ([4]; imazamox 71 g/ha, 30 DAT): 0%
% Height Reduction ([4]; imazamox 71 g/ha, 30 DAT): 0-10%
% Chlorosis ([4]; imazamox 160 g/ha, 14 DAT): 1-10%
% Height Reduction ([4]; imazamox 160 g/ha, 14 DAT): 0%
% Chlorosis ([4]; imazamox 160 g/ha, 30 DAT): 0-5%
% Height Reduction ([4]; imazamox 160 g/ha, 30 DAT): 0-20%
% Chlorosis ([5]; imazamox 71 g/ha, 14 DAT): 0-5%
% Height Reduction ([5]; imazamox 71 g/ha, 14 DAT): 0%
% Chlorosis ([5]; imazamox 71 g/ha, 30 DAT): 0%
% Height Reduction ([5]; imazamox 71 g/ha, 30 DAT): 5-10%
% Chlorosis ([5]; imazamox 160 g/ha, 14 DAT): 5-10%
% Height Reduction ([5]; imazamox 160 g/ha, 14 DAT): 0-20%
% Chlorosis ([5]; imazamox 160 g/ha, 30 DAT): 0%
% Height Reduction ([5]; imazamox 160 g/ha, 30 DAT): 10-15%
% Chlorosis ([6]; imazamox 71 g/ha, 14 DAT): 30-40%
% Height Reduction ([6]; imazamox 71 g/ha, 14 DAT): 0-10%
% Chlorosis ([6]; imazamox 71 g/ha, 30 DAT): 0%
% Height Reduction ([6]; imazamox 71 g/ha, 30 DAT): 5-20%
% Chlorosis ([6]; imazamox 160 g/ha, 14 DAT): 40%
% Height Reduction ([6]; imazamox 160 g/ha, 14 DAT): 0-10%
% Chlorosis ([6]; imazamox 160 g/ha, 30 DAT): 0-5%
% Height Reduction ([6]; imazamox 160 g/ha, 30 DAT): 10-20%
% Chlorosis ([7]; imazamox 71 g/ha, 14 DAT): 0%
% Height Reduction ([7]; imazamox 71 g/ha, 14 DAT): 10%
% Chlorosis ([7]; imazamox 71 g/ha, 30 DAT): 5%
% Height Reduction ([7]; imazamox 71 g/ha, 30 DAT): 5%
% Chlorosis ([7]; imazamox 160 g/ha, 14 DAT): 5%
% Height Reduction ([7]; imazamox 160 g/ha, 14 DAT): 10%
% Chlorosis ([7]; imazamox 160 g/ha, 30 DAT): 5%
% Height Reduction ([7]; imazamox 160 g/ha, 30 DAT): 5%
% Chlorosis ([8]; imazamox 71 g/ha, 14 DAT): 0-10%
% Height Reduction ([8]; imazamox 71 g/ha, 14 DAT): 0-10%
% Chlorosis ([8]; imazamox 71 g/ha, 30 DAT): 0-5%
% Height Reduction ([8]; imazamox 71 g/ha, 30 DAT): 0-10%
% Chlorosis ([8]; imazamox 160 g/ha, 14 DAT): 10-15%
% Height Reduction ([8]; imazamox 160 g/ha, 14 DAT): 10-20%
% Chlorosis ([8]; imazamox 160 g/ha, 30 DAT): 5-10%
% Height Reduction ([8]; imazamox 160 g/ha, 30 DAT): 5-10%
% Chlorosis ([9]; imazamox 71 g/ha, 14 DAT): 5%
% Height Reduction ([9]; imazamox 71 g/ha, 14 DAT): 0-10%
% Chlorosis ([9]; imazamox 71 g/ha, 30 DAT): 5%
% Height Reduction ([9]; imazamox 71 g/ha, 30 DAT): 5%
% Chlorosis ([9]; imazamox 160 g/ha, 14 DAT): 5%
% Height Reduction ([9]; imazamox 160 g/ha, 14 DAT): 0-10%
% Chlorosis ([9]; imazamox 160 g/ha, 30 DAT): 5-10%
% Height Reduction ([9]; imazamox 160 g/ha, 30 DAT): 5%
% Chlorosis ([10]; imazamox 71 g/ha, 14 DAT): 5-10%
% Height Reduction ([10]; imazamox 71 g/ha, 14 DAT): 0%
% Chlorosis ([10]; imazamox 71 g/ha, 30 DAT): 0%
% Height Reduction ([10]; imazamox 71 g/ha, 30 DAT): 0-10%
% Chlorosis ([10]; imazamox 160 g/ha, 14 DAT): 10%
% Height Reduction ([10]; imazamox 160 g/ha, 14 DAT): 0-10%
% Chlorosis ([10]; imazamox 160 g/ha, 30 DAT): 0%
% Height Reduction ([10]; imazamox 160 g/ha, 30 DAT): 0-10%
% Chlorosis ([11]; imazamox 71 g/ha, 14 DAT): 5-20%
% Height Reduction ([11]; imazamox 71 g/ha, 14 DAT): 0-20%
% Chlorosis ([11]; imazamox 71 g/ha, 30 DAT): 0%
% Height Reduction ([11]; imazamox 71 g/ha, 30 DAT): 5-20%
% Chlorosis ([11]; imazamox 160 g/ha, 14 DAT): 5-30%
% Height Reduction ([11]; imazamox 160 g/ha, 14 DAT): 0-30%
% Chlorosis ([11]; imazamox 160 g/ha, 30 DAT): 0-5%
% Height Reduction ([11]; imazamox 160 g/ha, 30 DAT): 5-30%
% Chlorosis ([12]; imazamox 71 g/ha, 14 DAT): 0-5%
% Height Reduction ([12]; imazamox 71 g/ha, 14 DAT): 0-10%
% Chlorosis ([12]; imazamox 71 g/ha, 30 DAT): 0-10%
% Height Reduction ([12]; imazamox 71 g/ha, 30 DAT): 0-5%
% Chlorosis ([12]; imazamox 160 g/ha, 14 DAT): 5-10%
% Height Reduction ([12]; imazamox 160 g/ha, 14 DAT): 0-10%
% Chlorosis ([12]; imazamox 160 g/ha, 30 DAT): 5-15%
% Height Reduction ([12]; imazamox 160 g/ha, 30 DAT): 0-10%
% Chlorosis ([13]; imazamox 71 g/ha, 14 DAT): 5-10%
% Height Reduction ([13]; imazamox 71 g/ha, 14 DAT): 5-10%
% Chlorosis ([13]; imazamox 71 g/ha, 30 DAT): 5-10%
% Height Reduction ([13]; imazamox 71 g/ha, 30 DAT): 5-10%
% Chlorosis ([13]; imazamox 160 g/ha, 14 DAT): 5-15%
% Height Reduction ([13]; imazamox 160 g/ha, 14 DAT): 10-30%
% Chlorosis ([13]; imazamox 160 g/ha, 30 DAT): 5-20%
% Height Reduction ([13]; imazamox 160 g/ha, 30 DAT): 5-20%
